In patent publication US20230348362A1, “LIPID COMPOUNDS AND LIPID NANOPARTICLE COMPOSITIONS” (Suzhou Abogen Biosciences Co., Ltd., priority 2021, published 2023):

Experiments:
Format in all cases: physicochemical
[1] = Lipid nanoparticle size and polydispersity by dynamic light scattering; conditions: LNP of lipid/DSPC/cholesterol/PEG-lipid 50:10:38.5:1.5 encapsulating hEPO mRNA
Procedure, shortened: (§1)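 LNPs made from ionizable lipid/DSPC/cholesterol/PEG-lipid (50:10:38.5:1.5) and mRNA in citrate pH 4 by microfluidic mixing, lipid:mRNA about 10:1–30:1 w/w, then dialysed into DPBS and filtered. Size and PDI measured by DLS in backscatter mode; encapsulation efficiency measured by RiboGreen assay.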

[2] = Encapsulation efficiency of lipid nanoparticles, Quant-it Ribogreen RNA assay; conditions: LNP of lipid/DSPC/cholesterol/PEG-lipid 50:10:38.5:1.5 encapsulating hEPO mRNA
Procedure, shortened: as §1

[3] = Apparent pKa of LNP formulations, TNS fluorescence assay; conditions: LNP cationic lipid/DSPC/cholesterol/DMG-PEG 50/10/38.5/1.5 mol %
Method: As reported in literature, the apparent pKa of LNP formulations correlates with the delivery efficiency of LNPs for nucleic acids in vivo. The apparent pKa of each formulation was determined using an assay based on fluorescence of 2-(p-toluidino)-6-napthalene sulfonic acid (TNS). LNP formulations comprising of cationic lipid/DSPC/cholesterol/DMG-PEG (50/10/38.5/1.5 mol %) in PBS were prepared as described above. TNS was prepared as a 300 μM stock solution in distilled water. LNP formulations were diluted to 0.1 mg/mL total lipid in 3 mL of buffered solutions containing 50 mM sodium citrate, 50 mM sodium phosphate, 50 mM sodium borate, and 30 mM sodium chloride where the pH ranged from 3 to 9. An aliquot of the TNS solution was added to give a final concentration of […] and following vortex mixing fluorescence intensity was measured at room temperature in a Molecular Devices Spectramax iD3 spectrometer using excitation and mission wavelengths of 325 nm and 435 nm. A sigmoidal best fit analysis was applied to the fluorescence data and the pKa value was measured as the pH giving rise to half-maximal fluorescent intensity.

Compound | polydispersity [1] | size (nm) [1] | Encapsulation Efficiency [2] | Apparent Pka [3]
CCCCCCCCC(CCCCCCCC)CC(=O)NCCCCCN(CCO)CCN(CCCCCNC(=O)CC(CCCCCCCC)CCCCCCCC)C1CCC1 [Compound 60] | 0.039 | 59.89 nm | 91.7% | 6.761
CCCCCCCCC(CCCCCCCC)CC(=O)NCCCCCN(CCN(CCO)CCCCCOC(=O)CC(CCCCCCCC)CCCCCCCC)C1CCC1 [Compound 61] | 0.026 | 66.08 nm | 95.4% | 6.731
CCCCCCCCC(CCCCCCCC)CC(=O)OCCCCCN(CCO)CCN(CCCCCOC(=O)CC(CCCCCCCC)CCCCCCCC)C1CCC1 [Compound 62] | 0.034 | 68.28 nm | 92.0% | 6.21
CCCCCCCCC(CCCCCCCC)COC(=O)/C=C/CN(CCO)CCN(CCCCCC(=O)OCC(CCCCCCCC)CCCCCCCC)C1CCC1 [Compound 63] | 0.044 | 87.84 nm | 93.93% | 6.147
CCCCCCCCC(CCCCCCCC)COC(=O)CCCCCN(C)C1CCC(N(CCO)CCCCCC(=O)OCC(CCCCCCCC)CCCCCCCC)CC1 (centres unmarked) [Compound 64] | 0.177 | 81.36 nm | 97.95% | 7.262
CCCCCCCCC(CCCCCCCC)COC(=O)CCCCCN(C/C=C/CN(CCCCCC(=O)OCC(CCCCCCCC)CCCCCCCC)C1CCC1)CCO [Compound 65] | 0.044 | 104.2 nm | 93.10% | 6.443
CCCCCCCCC(CCCCCCCC)COC(=O)CCCCCN(CCO)CCN(CCCCCC(=O)OCC(CCCCCCCC)CCCCCCCC)C1CCC(F)(F)CC1 [Compound 66] | 0.068 | 56.3 nm | 93.17% | 6.009
CCCCCCCCC(CCCCCCCC)COC(=O)CCCCCN(CCO)CCN(CCCCCC(=O)OCC(CCCCCCCC)CCCCCCCC)C1CC(OC)C1 (centres unmarked) [Compound 67] | 0.023 | 75.57 nm | 95.1% | 5.980
CCCCCCCCC(CCCCCCCC)CC(=O)NCCCCCN(CCN(CCO)CCCCCCOC(=O)C(CCCCCC)CCCCCCCC)C1CCC1 (centres unmarked) [Compound 70] | 0.005 | 126 nm | 91.32% | 6.732
CCCCCCCCC(CCCCCCCC)CC(=O)NCCCCCN(CCN(CCO)CCCCCOC(=O)CC(CCCCCCCC)CCCCCCCC)C1CCCC1 [Compound 72] | 0.033 | 74.18 nm | 92.60% | 6.633
CCCCCCCCC(CCCCCCCC)CC(=O)NCCCCCN(CCN(CCO)CCCCCOC(=O)CC(CCCCCCCC)CCCCCCCC)C1CCCCC1 [Compound 73] | 0.049 | 88.45 nm | 92.38% | 6.597
CCCCCCCCC(CCCCCCCC)CNC(=O)CCCCCN(CCN(CCCO)CCCCCC(=O)OCC(CCCCCCCC)CCCCCCCC)C1CCC1 [Compound 76] | 0.036 | 84.12 nm | 92.30% | 6.322
CCCCCCCCC(CCCCCCCC)CNC(=O)CCCCCN(CCN(CCCCO)CCCCCC(=O)OCC(CCCCCCCC)CCCCCCCC)C1CCC1 [Compound 77] | 0.006 | 84.87 nm | 92.71% | 6.485
CCCCCCCCC(CCCCCCCC)CNC(=O)CCCCCN(CCN(CCCCCCCCCO)CCCCCC(=O)OCC(CCCCCCCC)CCCCCCCC)C1CCC1 [Compound 78] | 0.019 | 100.3 nm | 88.18% | 6.195
CCCCCCCCC(CCCCCCCC)COC(=O)CCCCCN(C)CCN(CCCCCC(=O)OCC(CCCCCCCC)CCCCCCCC)CCNc1c(NC)c(=O)c1=O [Compound 79] | 0.104 | 69.09 nm | 96.26% | 6.914
CCCCCCCCC(CCCCCCCC)COC(=O)CCCCCN(CCNc1c(NC)c(=O)c1=O)CCN(CCCCCC(=O)OCC(CCCCCCCC)CCCCCCCC)C1CCC1 [Compound 81] | 0.051 | 55.27 nm | 91.82% | 6.298
CCCCCCCCCCCOC(=O)CCCCCN(CCN(CCCCCC(=O)OCC(CCCCCCCC)CCCCCCCC)CCNc1c(NC)c(=O)c1=O)C1CCC1 [Compound 82] | 0.066 | 67.32 nm | 91.54% | 6.599
CCCCCCCCC(CCCCCCCC)COC(=O)CCCCCN(CCO)CCN(CCCCCOC(=O)CCCCCC(CCCCCC)CCCCCC)C1CCC1 [Compound 83] | 0.032 | 87.87 nm | 92.51% | 6.233
CCCCCCCCC(CCCCCCCC)COC(=O)CCCCCN(CCO)CCN(CCCCCCOC(=O)C(CCCCCCCC)CCCCCCCC)C1CCC1 [Compound 84] | 0.097 | 59.91 nm | 91.88% | 6.117
CCCCCCCCC(CCCCCCCC)COC(=O)CCCCCN(CCNc1c(N(C)C)c(=O)c1=O)CCN(CCCCCC(=O)OCC(CCCCCCCC)CCCCCCCC)C1CCC1 [Compound 85] | 0.096 | 67.44 nm | 93.27% | 6.126
CCCCCCCCC(CCCCCCCC)COC(=O)CCCCCN(CCO)CCCCN(CCCCCC(=O)OCC(CCCCCCCC)CCCCCCCC)C1CCC1 [Compound 86] | 0.043 | 86.61 nm | 95.02% | 6.814
CCCCCCCCC(CCCCCCCC)COC(=O)CCCCCN(CCO)CCN(CCCCCOC(=O)CCCCC=C(CCCCCC)CCCCCC)C1CCC1 [Compound 87] | 0.055 | 70.07 nm | 93.34% | 6.476
CCCCCCCCCCCCCCN(CCCCCCCCCCCCCC)C(=O)CCCCCN(CCO)CCN(CCCCCC(=O)OCCCCCCCCCCC)C1CCCCC1 [Compound 89] | 0.086 | 81.46 nm | 89.05% | 6.745
CCCCCCCCCCCC(=O)OCCCCCN(CCN(CCO)CCCCCOC(=O)CC(CCCCCCCC)CCCCCCCC)C1CC1 [Compound 91] | 0.115 | 64.49 nm | 87.92% | 6.042
CCCCCCCCCCCC(=O)OCCCCCN(CCN(CCO)CCCCCOC(=O)CC(CCCCCCCC)CCCCCCCC)C1CCC1 [Compound 92] | 0.014 | 80.12 nm | 91.34% | 6.582
CCCCCCCCCCCC(=O)OCCCCCN(CCN(CCO)CCCCCOC(=O)CC(CCCCCCCC)CCCCCCCC)C1CCCCCC1 [Compound 94] | 0.061 | 58.34 nm | 90.26% | 6.448
